In ChEMBL document CHEMBL3351369, “Phenylpropanoid acid esters from Korean propolis and their antioxidant activities” (Bioorg Med Chem Lett, 2014):

Experiments:
[1] = Ratio of compound IC50 to trolox IC50 for ABTS radical scavenging activity after 12 hrs by spectrophotometry
[2] = Ratio of compound IC50 to trolox IC50 for DPPH radical scavenging activity after 30 mins by spectrophotometry
[3] = Antioxidant activity assessed as ABTS radical scavenging activity up to 1 mM after 12 hrs by spectrophotometry; type: physicochemical
[4] = Antioxidant activity assessed as DPPH radical scavenging activity up to 1 mM after 30 mins by spectrophotometry; type: physicochemical; conditions: 0.5 h
[5] = Antioxidant activity assessed as DPPH radical scavenging activity after 30 mins by spectrophotometry; type: physicochemical; conditions: 0.5 h
[6] = Antioxidant activity assessed as hydroxyl radical scavenging activity at 50 uM after 30 mins by Fenton reaction-induced DNA single strand breakage method; type: physicochemical; conditions: 0.5 h
[7] = Antioxidant activity assessed as ABTS radical scavenging activity after 12 hrs by spectrophotometry; type: physicochemical

Row | Activity [3] | Activity [4] | Activity [5] | Activity [6] | Activity [7] | SMILES | Ratio IC50 [1] | Ratio IC50 [2]
1 | Not Active | Not Active | – | – | – | O=C(/C=C/c1ccc(O)cc1)OCc1ccccc1 | > 500 | > 500
2 | Not Active | Not Active | – | – | – | O=C(/C=C/c1ccccc1)OC/C=C/c1ccccc1 | > 500 | > 500
3 | – | – | Dose-dependent effect | Not Active | Dose-dependent effect | COc1cc(/C=C/C(=O)OCC=C(C)C)ccc1O | 23.1 | 105
4 | Not Active | Not Active | – | – | – | O=C(/C=C/c1ccc(O)cc1)OC/C=C/c1ccccc1 | > 500 | > 500
5 | – | – | – | – | – | COc1ccc(/C=C/C(=O)OC/C=C/c2ccccc2)cc1OC | > 500 | > 500
6 | – | – | – | – | – | Cc1c(C)c2c(c(C)c1O)CCC(C)(C(=O)O)O2 (stereo not given) | 1 | 1
7 | – | – | Dose-dependent effect | Active | Dose-dependent effect | O=C(/C=C/c1ccc(O)c(O)c1)OCc1ccccc1 [BENZYL CAFFEATE] | 3.42 | 3.86
8 | – | – | Dose-dependent effect | Not Active | Dose-dependent effect | COc1cc(/C=C/C(=O)OCc2ccccc2)ccc1O [BENZYL FERULATE] | 24.8 | 92.1
9 | – | – | Dose-dependent effect | Active | Dose-dependent effect | O=C(/C=C/c1ccc(O)c(O)c1)OCCc1ccccc1 [CAFFEIC ACID PHENETHYL ESTER] | 6.3 | 0.46
10 | – | – | Dose-dependent effect | Active | Dose-dependent effect | CCOC(=O)/C=C/c1ccc(O)c(O)c1 [ETHYL CAFFEATE] | 10.6 | 6.3
11 | Not Active | Not Active | – | – | – | O=C(/C=C/c1ccccc1)OCCc1ccccc1 [PHENETHYL CINNAMATE] | > 500 | > 500
